Consider 13 compounds from ChEMBL document CHEMBL1130488, “1,4-Diaryl-2-oxo-1,2-dihydro-quinoline-3-carboxylic acids as endothelin receptor antagonists” (Bioorg Med Chem Lett, 1997).

The first test deals with T1, Endothelin-1 receptor (Rattus norvegicus, UniProt P26684).
T1 sequence (P26684 whole entry): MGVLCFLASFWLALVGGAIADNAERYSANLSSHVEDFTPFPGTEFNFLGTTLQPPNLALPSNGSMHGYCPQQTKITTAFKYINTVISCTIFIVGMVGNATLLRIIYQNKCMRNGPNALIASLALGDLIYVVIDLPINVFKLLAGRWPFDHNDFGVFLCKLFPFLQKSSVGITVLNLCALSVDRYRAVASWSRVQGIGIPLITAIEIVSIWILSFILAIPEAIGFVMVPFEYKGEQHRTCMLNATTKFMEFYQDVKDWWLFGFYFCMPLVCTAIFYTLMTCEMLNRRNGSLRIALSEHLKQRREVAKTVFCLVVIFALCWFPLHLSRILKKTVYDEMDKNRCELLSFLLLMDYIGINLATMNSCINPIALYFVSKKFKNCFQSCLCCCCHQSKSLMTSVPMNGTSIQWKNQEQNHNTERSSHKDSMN
In words: Functional antagonism against ETA receptor in rat aortic rings expressed as pA2 value. Particulars: read-out: pA2 (converted).
With `CCOc1ccc2c(c1)c(-c1ccc3c(c1)OCO3)c(C(=O)O)n2Cc1ccc(OC)cc1`, the Kb was 398 nM.

As for `CCOc1ccc2c(c1)c(-c1ccc(OC)cc1)c(C(=O)O)c(=O)n2Cc1cc(OC)ccc1OC`, the Kb is 6310 nM.

For the next test, the target named is T1, Endothelin-1 receptor. In words: Inhibition of [125I]ET1 binding to rat aorta membranes(ETA). Type of test: cell membranes, Membrane.
Conditions: not given
On to `CCOc1ccc2c(c1)c(-c1ccc(OC)cc1)c(C(=O)O)c(=O)n2Cc1ccccc1OC`, for which the IC50 was 1300 nM.

The compound `COc1ccc(Cn2c(=O)c(C(=O)O)c(-c3ccc4c(c3)OCO4)c3ccccc32)cc1` returned an IC50 of 2400 nM.

`O=C(O)c1c(-c2ccc3c(c2)OCO3)c2ccccc2n(Cc2ccccc2)c1=O` gave an IC50 of over 10000 nM.

`CCOc1ccc2c(c1)c(-c1ccc3c(c1)OCO3)c(C(=O)O)c(=O)n2Cc1ccccc1OC`: the IC50 was determined as 380 nM.

`CCOc1ccc2c(c1)c(-c1ccc3c(c1)OCO3)c(C(=O)O)n2Cc1ccc(OC)cc1` gave an IC50 of 130000 nM.

As to `CCOc1ccc2c(c1)c(-c1ccc(OC)cc1OC)c(C(=O)O)c(=O)n2Cc1ccccc1OC`, the concentration for half-maximal inhibition (IC50) came out at 1200 nM.

Turning to `COc1ccccc1Cn1c(=O)c(C(=O)O)c(-c2ccc3c(c2)OCO3)c2ccccc21`, the half-maximal inhibitory concentration (IC50) was 2000 nM.

For the compound `O=C(O)c1c(-c2ccc3c(c2)OCO3)c2ccccc2n(Cc2ccc3c(c2)OCO3)c1=O`, the half-maximal inhibitory concentration (IC50) worked out at 2600 nM.

`CCc1ccc2c(c1)c(-c1ccc3c(c1)OCO3)c(C(=O)O)c(=O)n2Cc1ccccc1OC` came in with an IC50 of 1500 nM.

In turn, `COc1ccccc1Cn1c(=O)c(C(=O)O)c(-c2ccc3c(c2)OCO3)c2c(OC)c(OC)ccc21` registered a half-inhibitory concentration (IC50) of 3300 nM.

In the case of `COc1ccccc1Cn1c(=O)c(CC(=O)O)c(-c2ccc3c(c2)OCO3)c2ccccc21`, the concentration for half-maximal inhibition (IC50) was over 10000 nM.

With `COc1cccc(Cn2c(=O)c(C(=O)O)c(-c3ccc4c(c3)OCO4)c3ccccc32)c1`, the IC50 was over 10000 nM.

On to `CCOc1ccc2c(c1)c(-c1ccc(OC)cc1)c(C(=O)O)c(=O)n2Cc1cc(OC)ccc1OC`, for which the IC50 is 260 nM.
